Measured values reported in PMC8113459, “Selective inhibition of cullin 3 neddylation through covalent targeting DCN1 protects mice from acetaminophen-induced liver toxicity” (Nature Communications, 2021).
“And” between values parts separate entries of the source, which are not always exact repeats. Equal values may be shown once. Read-outs that look alike come from different tables or passages of the source.

What was measured:
[1] = target: T1, DCN1 (Homo sapiens, UniProt Q96GG9); assay: Cocrystal structures of lyso-DCN1-inhibitor complexes; design: to DCN1 residues 62–251; His6 (N); TEV cleavage site (N); lysozyme residues 1–164 with C54T, C97A, A146T, D127A, R154A (fusion partner, N-terminal of DCN1); made in house; host or cells: Rosetta 2 cells (E. coli)
Method: Lysozyme–DCN1 gene was synthesized fusing lysozyme residues 1–164, containing mutations (C54T, C97A, A146T, D127A, and R154A), to DCN1 residues 62–251. Ligation independent cloning was utilized to clone the fused gene into an N-terminal His6–TEV expression vector. The clone was transformed into Rosetta 2 cells, grown in terrific broth at 37 °C, and expressed overnight with 0.4 mM isopropyl β-D-1-thiogalactopyranoside at 20 °C. Pelleted cells were freeze-thawed and lysed in 25 mM HEPES, pH 7.5, 150 mM NaCl, 0.1% β-mercaptoethanol and protease inhibitors. Cellular debris was removed via centrifugation. The supernatant was loaded onto a Ni-NTA (Qiagen) column at 4 °C. The column was washed with 25 mM HEPES, pH 7.5, 150 mM NaCl, and 20 mM imidazole, then protein eluted with buffer containing 300 mM imidazole. The eluate was applied to a Superdex 200 (GE Healthcare) equilibrated with 25 mM HEPES, pH 7.5, 200 mM NaCl, and 1 mM DTT. The protein was judged to be greater than 95% pure by SDS-PAGE, concentrated to 3.5 mg/mL and stored at −80 °C. Yield was 450 mg/L of expressed media.
Lyso–DCN1 protein was thawed and concentrated to 9.9 mg/mL in 25 mM HEPES, pH 7.5, 200 mM NaCl, and 1 mM DTT. Each compound was incubated with protein in a 1:1.2 protein to compound molar ratio overnight at 4 °C, then spun and setup in sitting drop vapor diffusion experiments. Crystallization drops contained 2 µL of protein–inhibitor solution and 1 µL of well solution. Crystals grew at 20 °C with well solution containing 28–33% PEG 3350 and 200 mM ammonium formate. Crystals were cryoprotected in 25 mM HEPES, pH 7.5, 200 mM NaCl, 30% PEG 3350, and 1 mM DTT.
Diffraction data were collected at a wavelength of 0.9786 Å on the APS LS-CAT 21-ID-G beamline at Argonne National Laboratory. Data were processed using HKL2000[44] and solved via molecular replacement using molrep[45] with two independent search models (lysozyme and DCN1) from PDB ID 5V83. The structures were iteratively fit and refined using Coot[46] and Buster[47]. […]
Target sequence in this assay (Q96GG9 62-251): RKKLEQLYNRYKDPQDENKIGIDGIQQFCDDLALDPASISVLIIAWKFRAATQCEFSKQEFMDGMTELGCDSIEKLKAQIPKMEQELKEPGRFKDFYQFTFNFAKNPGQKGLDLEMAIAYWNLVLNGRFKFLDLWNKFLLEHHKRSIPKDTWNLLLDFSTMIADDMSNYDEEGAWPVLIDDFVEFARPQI

[2] = target: T1, DCN1; assay: Intact-protein mass spectrometric analysis of covalent complex formation, Method A; type: binding; settings: for Percentage of the formation of covalent complex with DCN1 protein: 37 °C
Text: MassHunter Qualitative Analysis software (Agilent) was used to analyze the data. Intact protein masses were obtained using the maximum entropy deconvolution algorithm. The mass spectrometry data in Supplementary Figs. 1–11 were generated by Method A.
Target sequence in this assay (Q96GG9 58-259 limits assumed): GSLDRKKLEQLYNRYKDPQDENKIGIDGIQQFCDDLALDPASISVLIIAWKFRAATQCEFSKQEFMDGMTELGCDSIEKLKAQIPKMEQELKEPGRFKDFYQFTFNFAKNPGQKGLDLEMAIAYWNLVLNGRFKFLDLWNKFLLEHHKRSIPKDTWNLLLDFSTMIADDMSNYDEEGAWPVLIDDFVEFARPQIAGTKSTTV

[3] = Pharmacokinetics: concentrations in mouse plasma and liver; type: in vivo; settings: for concentration at 1 h / concentration at 3 h / concentration at 6 h / concentration at 24 h: male, C57BL/6, mouse, ip
Method: Supplementary Table 2A. Concentrations of DI-1548 in mouse Plasma and liver after the C57BL/6 male mice were treated with a single dose of DI-1548 at 25 mg/kg via intraperitoneal (IP) injection. BLQ: below the limit of quantification.
Time point (h) Plasma (ng /mL) Liver (ng /g)
Supplementary Table 2B. Concentrations of DI-1859 in mouse Plasma and liver after the C57BL/6 male mice were treated with a single dose of DI-1859 at 25 mg/kg via intraperitoneal (IP) injection. BLQ:
Time point (h) Pl asma (ng /mL) Liver (ng /g) […]

[4] = test system: neddylation of cullin 1, 2, 4A, 4B, and 5; assay: Western blot, neddylation of other cullin members; type: cell-based, human
Method: Western blotting was performed as described previously. Treated cells were lysed by RIPA buffer supplemented with protease inhibitor. The expression level of indicated proteins was examined by immunoblotting analysis and GAPDH was used as the loading control. Antibodies were purchased commercially: cullin 1 (sc-17775, 1:500 dilution) and cullin 2 (sc-166506, 1:500 dilution) from Santa Cruz Biotech (Santa Cruz, CA); cullin 4A (PA5-14542, 1:1000 dilution), cullin 4B (PA5-50647, 1:1000 dilution), and DCN3 (DCUN1D3, PA5-44000, 1:1000 dilution) from Thermo Fisher Scientific (Wayne, MI); cullin 3 (2759, 1:1000), NRF2 (12721, 1:1000 dilution), HO-1 (70081, 1:1000 dilution), and Bim (2819, 1:1000 dilution) from Cell Signaling Technology (Boston, MA); DCN1 (GWB-E3D700, 1:1000 dilution) from GenWay Biotech (San Diego, CA); and cullin 5 (A302-173A, 1:500 dilution) from Bethyl Labs (Montgomery, TX). Results are representative of two independent experiments.

[5] = test system: neddylation of cullin 3; assay: Western blot, cullin 3 neddylation in U2OS cells; type: cell-based, human; settings: 24 h, Fig. 1c
[6] = C57BL/6 male mice, 25 mg/kg IP, 6 h
[7] = C57BL/6 male mice, 25 mg/kg IP, 24 h

C=C(CN(C)C)C(=O)NC[C@@H](NC(=O)[C@H](Cc1nc2ccc(C(C)C)cc2s1)NC(=O)CC)C1CCCCC1 [DI-1859]
covalent bond to Cys115 of DCN1 in the cocrystal structure [1]: confirmed the covalent nature of these complexes | covalent complex formation / reaction kinetics with DCN1 protein (in words) [2]: very fast covalent complex formation | Percentage of the formation of covalent complex with DCN1 protein ([2]; 10 min incubation, 1.2-fold excess inhibitor): 100% | Percentage of the formation of covalent complex with DCN1 protein ([2]; 60 min (1 h) incubation): 100% | Percentage of the formation of covalent complex with DCN1 protein ([2]; 180 min (3 h) incubation): 100% | time by which the compounds were cleared from systemic circulation ([3]; 25 mg/kg IP): < 3 h | Liver concentration [3, 6]: BLQ | Plasma concentration [3, 6]: BLQ | Liver concentration [3, 7]: BLQ | Plasma concentration [3, 7]: BLQ | concentration at 1 h ([3]; liver, 25 mg/kg, C57BL/6 male mice, 25 mg/kg IP, 1 h, read-out: Liver concentration): 3280 ± 531 ng/g | concentration at 3 h ([3]; liver, 25 mg/kg, C57BL/6 male mice, 25 mg/kg IP, 3 h, read-out: Liver concentration): 30 ± 29 ng/g | concentration at 1 h ([3]; liver, 25 mg/kg, mouse liver, IP 25mg/kg, 1h, mean of 3 mice, read-out: Concentration in mouse liver, MEAN): 3280 ng/g | concentration at 1 h ([3]; liver, 25 mg/kg, mouse liver, IP 25mg/kg, 1h, single animals, read-out: Concentration in mouse liver, individual mice 1, 2, 3): 3880 ng/g | concentration at 3 h ([3]; liver, 25 mg/kg, mouse liver, IP 25mg/kg, 3h, mean of 3 mice, read-out: Concentration in mouse liver, MEAN): 30.3 ng/g | concentration at 6 h ([3]; liver, 25 mg/kg, mouse liver, IP 25mg/kg, 6h, mean of 3 mice, read-out: Concentration in mouse liver, MEAN): 2.27 ng/g | concentration at 24 h ([3]; liver, 25 mg/kg, mouse liver, IP 25mg/kg, 24h, mean, read-out: Concentration in mouse liver, MEAN): 1.46 ng/g | concentration at 24 h ([3]; liver, 25 mg/kg, mouse liver, IP 25mg/kg, 24h, single animals, read-out: Concentration in mouse liver, individual mice 1, 2, 3): 1.56 ng/g | concentration at 1 h ([3]; plasma, 25 mg/kg, C57BL/6 male mice, 25 mg/kg IP, 1 h, read-out: Plasma concentration): 1740 ± 292 ng/mL | concentration at 3 h ([3]; plasma, 25 mg/kg, C57BL/6 male mice, 25 mg/kg IP, 3 h, read-out: Plasma concentration): 28 ± 12 ng/mL | concentration at 1 h ([3]; plasma, 25 mg/kg, mouse plasma, IP 25mg/kg, 1h, mean of 3 mice, read-out: Concentration in mouse plasma, MEAN): 1740 ng/mL | concentration at 1 h ([3]; plasma, 25 mg/kg, mouse plasma, IP 25mg/kg, 1h, single animals, read-out: Concentration in mouse plasma, individual mice 1, 2, 3): 2070 ng/mL | concentration at 3 h ([3]; plasma, 25 mg/kg, mouse plasma, IP 25mg/kg, 3h, mean of 3 mice, read-out: Concentration in mouse plasma, MEAN): 27.9 ng/mL | concentration at 6 h ([3]; plasma, 25 mg/kg, mouse plasma, IP 25mg/kg, 6h, mean (only one mouse above the limit of quantification), read-out: Concentration in mouse plasma, MEAN): 1.04 ng/mL | concentration at 6 h ([3]; plasma, 25 mg/kg, mouse plasma, IP 25mg/kg, 6h, single animals, limit of quantification 1 ng/mL, read-out: Concentration in mouse plasma, individual mice 1, 2, 3): < 1 ng/mL | concentration at 24 h ([3]; plasma, 25 mg/kg, mouse plasma, IP 25mg/kg, 24h, single animals, limit of quantification 1 ng/mL, read-out: Concentration in mouse plasma, individual mice 1, 2, 3): < 1 ng/mL | Concentration in mouse liver, individual mice 1, 2, 3 ([3]; mouse liver, IP 25mg/kg, 1h, single animals, 25 mg/kg): 3079.98 ng/g and 2879.94 ng/g | Concentration in mouse liver, individual mice 1, 2, 3 ([3]; mouse liver, IP 25mg/kg, 3h, single animals, 25 mg/kg): 13.04 ng/g and 64.07 ng/g and 13.91 ng/g | Concentration in mouse liver, individual mice 1, 2, 3 ([3]; mouse liver, IP 25mg/kg, 6h, single animals, 25 mg/kg): 1.59 ng/g | Concentration in mouse liver, individual mice 1, 2, 3 ([3]; mouse liver, IP 25mg/kg, 24h, single animals, 25 mg/kg): 1.41 ng/g and 1.40 ng/g | Concentration in mouse plasma, individual mice 1, 2, 3 ([3]; mouse plasma, IP 25mg/kg, 1h, single animals, 25 mg/kg): 1549.72 ng/mL and 1588.65 ng/mL | Concentration in mouse plasma, individual mice 1, 2, 3 ([3]; mouse plasma, IP 25mg/kg, 3h, single animals, 25 mg/kg): 36.02 ng/mL and 14.64 ng/mL and 33.18 ng/mL | Concentration in mouse plasma, individual mice 1, 2, 3 ([3]; mouse plasma, IP 25mg/kg, 6h, single animals, limit of quantification 1 ng/mL, 25 mg/kg): <1 ng/mL and 1.04 ng/mL | Concentration in mouse plasma, individual mice 1, 2, 3 ([3]; mouse plasma, IP 25mg/kg, 24h, single animals, limit of quantification 1 ng/mL): <1 ng/mL | inhibition of neddylation of cullin members ([4]; THLE2, Fig. 6b): similar, high selectivity | selectivity in inhibition of the neddylation of cullin 3 over other cullin members ([4]; a number of cell lines): 1000 fold | concentration as low as which cullin 3 neddylation is inhibited [5]: ≤ 1 nM | potency in inhibition of cullin 3 neddylation compared with DI-591 [5]: much more potent than DI-591 | times more potent than DI-591 in inhibition of cullin 3 neddylation [5]: ~ 1000 times
